Reference: patent publication US20050171358A1 (priority 2002, published 2005)

Assays:
[1] = tested on: Colletotrichum lagenarium; conditions: 200 ppm spray on cucumber (3 leaf stage), inoculated next day; lesion numbers on first and second leaves after 7 days in green house, graded by Table 5
Pyricularia oryzae = assay type: in vivo; conditions: 200 ppm spray on rice (Koshihikari, 3 leaf stage), inoculated next day; lesion numbers on third leaves after 7 days in green house, graded by Table 5

Compound | Evaluation (effect for cucumber anthracnose) [1] | Evaluation (effect for rice blast) (Pyricularia oryzae)
CC(C)Cc1cc(CNC(=O)c2ccc3ccccc3c2)on1 [III-259, N-[(3-isobutyl-5-isoxazolyl)methyl]-2-naphthalenecarboxamide] | 4 (1˜5) | 5 (0)
COc1ccc(C(=O)NCc2cc(COc3ccccn3)no2)cc1 [IV-92, N-{[3-(2-pyridyl)oxymethyl-5-isoxazolyl]methyl}-4-methoxybenzamide] | 3 (6˜10) | 4 (1˜5)
Cc1ccc(C(=O)NCc2cc(-c3ccc(C#N)cc3)no2)cc1 [III-43, N-{[3-(4-cyanophenyl)-5-isoxazolyl]methyl}-4-methylbenzamide] | 4 (1˜5) | 5 (0)
Cc1ccc(C(=O)NCc2cc(-c3ccncc3)no2)cc1 [III-219, N-{[3-(4-pyridyl)-5-isoxazolyl]methyl}-4-methylbenzamide] | 3 (6˜10) | 3 (6˜10)
COc1ccc(C(=O)NCc2cc(-c3nc(-c4ccccc4)no3)no2)cc1 [III-232, N-{[3-(3-phenyl-1,2,4-oxadiazol-5-yl)-5-isoxazolyl]methyl]-4-methoxybenzamide] | 2 (11˜20) | 3 (6˜10)
O=C(NCc1cc(-c2ccccc2)no1)Nc1cccnc1 [II-100, 1-[(3-phenyl-5-isoxazolyl)methyl]-3-(3-pyridyl)urea] | 4 (1˜5) | 4 (1˜5)
CCCCc1cc(CNC(=O)c2ccc(OC)cc2)on1 [III-235, N-[(3-butyl-5-isoxazolyl)methyl]-4-methoxybenzamide] | 4 (1˜5) | 4 (1˜5)
Cc1ccc(-c2cc(CNC(=O)C3CCCC3)on2)cc1 [III-227, N-{[3-(4-tolyl)-5-isoxazolyl]methyl}cyclopentanecarboxamide] | 5 (0) | 5 (0)
COc1ccc(C(=O)NCc2cc(COc3cccc(C#N)c3)no2)cc1 [IV-52, N-{[3-(3-cyanophenyl)oxymethyl-5-isoxazolyl]methyl}-4-methoxybenzamide] | 2 (11˜20) | 3 (6˜10)
O=C(NCc1cc(COc2ccccc2)no1)c1cc(Cl)nc(Cl)c1 [IV-122, N-[(3-phenoxymethyl-5-isoxazolyl)methyl]-2,6-dichloropyridine-4-carboxamide] | 2 (11˜20) | 3 (6˜10)
C/C=C/C=C/c1cc(CNC(=O)c2ccc(OC)cc2)on1 [III-221, N-{[3-(1,3-pentadienyl)-5-isoxazolyl]methyl}-4-methoxylbenzamide] | 2 (11˜20) | 2 (11˜20)
COc1ccc(C(=O)NCc2cc(COc3cccc(OC)c3)no2)cc1 [IV-55, N-{[3-(3-methoxyphenyl)oxymethyl-5-isoxazolyl]methyl}-4-methoxybenzamide] | 4 (1˜5) | 4 (1˜5)
Cc1ccc(C(=O)NCc2cc(C(C)C)no2)cc1 [III-5, N-[(3-isopropyl-5-isoxazolyl)methyl]-4-methyl benzamide] | 4 (1˜5) | 4 (1˜5)
COc1ccc(C(=O)NCc2cc(-c3cc4ccccc4n3C)no2)cc1 [III-223, N-{[3-(1-methylindol-2-yl)-5-isoxazolyl]methyl}-4-methoxybenzamide] | 5 (0) | 5 (0)
O=C(NCc1cc(-c2ccccc2)no1)c1ccc(F)cc1 [III-121, N-[(3-phenyl-5-isoxazolyl)methyl]-4-fluorobenzamide] | 5 (0) | 5 (0)
